The record followed here is patent publication US7045532B2 (Millennium Pharmaceuticals, Inc., priority 1999, dated 2006).

Experiment [1] addresses ACE-2 (Rattus norvegicus, UniProt Q5EGZ1). As to the kind of experiment: ACE-2 Competitive Substrate Assay, rat ACE-2. The format is biochemical. To be noted: Ki class, compounds tested in 5% DMSO.
Experiment [2] has as its target T1, ACE-2 (Homo sapiens, UniProt Q9BYF1).
T1 construct: a stop codon inserted after the serine immediately preceding the transmembrane domain; made in house; host or cells: CHO K1 cells (transient transfection, purified from conditioned medium)
As to the kind of experiment: ACE-2 Competitive Substrate Assay (ACS Assay). The format is biochemical. To be noted: Ki class, compounds tested in 5% DMSO, read-out: Human ACE-2 Activity.

Another experiment has as its target T2, Carboxypeptidase A (Bos taurus, UniProt P00730).
T2 sequence (P00730 111-419): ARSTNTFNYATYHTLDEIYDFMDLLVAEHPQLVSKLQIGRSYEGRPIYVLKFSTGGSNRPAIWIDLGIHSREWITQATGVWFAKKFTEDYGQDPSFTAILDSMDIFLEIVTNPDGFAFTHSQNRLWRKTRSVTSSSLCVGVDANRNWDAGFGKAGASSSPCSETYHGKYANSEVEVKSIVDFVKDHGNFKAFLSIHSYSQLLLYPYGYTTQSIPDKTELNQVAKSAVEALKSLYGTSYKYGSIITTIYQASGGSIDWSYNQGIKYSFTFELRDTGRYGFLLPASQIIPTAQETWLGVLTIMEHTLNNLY
As to the kind of experiment: Carboxypeptidase A activity assay. The format is biochemical. To be noted: Ki class; compounds tested in 5% DMSO, 12 concentrations. The essentials:
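Bovine carboxypeptidase A activity followed at 328 nm in 5% DMSO, reaction stopped with EDTA. Activity measured at 12 compound concentrations. Ki derived from apparent Ki as Ki=Kiapp/(1+[S]/Km).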

The next experiment deals with T3, ACE (Sigma, A2580) (Sus scrofa, UniProt F1RRW5).
T3 construct: ACE from porcine kidney; purchased Sigma A2580; host or cells: porcine kidney
T3 sequence (F1RRW5 34-1309): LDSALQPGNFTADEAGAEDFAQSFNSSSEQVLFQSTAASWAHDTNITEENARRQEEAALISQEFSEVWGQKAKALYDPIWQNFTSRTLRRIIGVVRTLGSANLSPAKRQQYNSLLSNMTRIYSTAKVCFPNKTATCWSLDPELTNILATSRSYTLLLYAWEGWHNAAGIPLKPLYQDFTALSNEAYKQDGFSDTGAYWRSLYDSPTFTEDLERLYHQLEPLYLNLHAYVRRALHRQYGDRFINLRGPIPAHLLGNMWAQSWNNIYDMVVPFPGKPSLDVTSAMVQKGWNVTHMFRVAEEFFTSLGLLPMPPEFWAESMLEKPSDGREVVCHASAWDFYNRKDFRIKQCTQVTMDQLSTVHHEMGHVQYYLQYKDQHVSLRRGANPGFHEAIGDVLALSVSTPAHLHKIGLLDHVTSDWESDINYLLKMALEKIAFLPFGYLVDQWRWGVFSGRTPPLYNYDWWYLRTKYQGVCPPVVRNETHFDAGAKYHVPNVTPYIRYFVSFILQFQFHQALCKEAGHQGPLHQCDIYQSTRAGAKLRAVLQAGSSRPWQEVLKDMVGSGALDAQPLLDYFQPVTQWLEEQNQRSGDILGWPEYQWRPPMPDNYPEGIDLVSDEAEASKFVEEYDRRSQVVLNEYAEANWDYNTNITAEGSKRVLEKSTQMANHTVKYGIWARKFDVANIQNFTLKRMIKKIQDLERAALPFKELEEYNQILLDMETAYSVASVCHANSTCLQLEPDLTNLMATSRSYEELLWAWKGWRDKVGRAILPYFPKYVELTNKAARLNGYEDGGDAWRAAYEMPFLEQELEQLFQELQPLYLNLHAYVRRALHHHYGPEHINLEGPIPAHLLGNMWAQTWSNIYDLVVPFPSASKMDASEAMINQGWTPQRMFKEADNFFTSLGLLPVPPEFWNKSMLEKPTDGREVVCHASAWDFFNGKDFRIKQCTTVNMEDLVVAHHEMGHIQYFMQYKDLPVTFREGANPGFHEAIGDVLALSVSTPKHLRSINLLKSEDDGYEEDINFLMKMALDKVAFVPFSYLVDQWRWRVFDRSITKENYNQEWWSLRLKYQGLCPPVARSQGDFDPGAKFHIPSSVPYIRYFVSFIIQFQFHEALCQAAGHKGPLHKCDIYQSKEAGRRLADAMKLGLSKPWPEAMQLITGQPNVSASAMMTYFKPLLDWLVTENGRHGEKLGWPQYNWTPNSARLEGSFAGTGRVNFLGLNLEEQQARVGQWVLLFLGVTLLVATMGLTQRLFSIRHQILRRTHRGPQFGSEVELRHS
Kind of experiment: ACE enzymatic activity assay. The format is biochemical, porcine. To be noted: Ki class; compounds tested in 5% DMSO, 12 concentrations. The essentials: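 ACE (1 nM final) in 50 mM HEPES, 300 mM NaCl, 0.01% Brij-35, pH 7.5, with compound in 5% DMSO at 12 concentrations, 25 °C. Substrate cleavage run ~30 min, stopped with EDTA; fluorescence read at excitation 320 nm, emission 405 nm.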

Read-outs that look alike come from different tables or passages of the source.

T1 sequence (Q9BYF1 18-740 limits assumed): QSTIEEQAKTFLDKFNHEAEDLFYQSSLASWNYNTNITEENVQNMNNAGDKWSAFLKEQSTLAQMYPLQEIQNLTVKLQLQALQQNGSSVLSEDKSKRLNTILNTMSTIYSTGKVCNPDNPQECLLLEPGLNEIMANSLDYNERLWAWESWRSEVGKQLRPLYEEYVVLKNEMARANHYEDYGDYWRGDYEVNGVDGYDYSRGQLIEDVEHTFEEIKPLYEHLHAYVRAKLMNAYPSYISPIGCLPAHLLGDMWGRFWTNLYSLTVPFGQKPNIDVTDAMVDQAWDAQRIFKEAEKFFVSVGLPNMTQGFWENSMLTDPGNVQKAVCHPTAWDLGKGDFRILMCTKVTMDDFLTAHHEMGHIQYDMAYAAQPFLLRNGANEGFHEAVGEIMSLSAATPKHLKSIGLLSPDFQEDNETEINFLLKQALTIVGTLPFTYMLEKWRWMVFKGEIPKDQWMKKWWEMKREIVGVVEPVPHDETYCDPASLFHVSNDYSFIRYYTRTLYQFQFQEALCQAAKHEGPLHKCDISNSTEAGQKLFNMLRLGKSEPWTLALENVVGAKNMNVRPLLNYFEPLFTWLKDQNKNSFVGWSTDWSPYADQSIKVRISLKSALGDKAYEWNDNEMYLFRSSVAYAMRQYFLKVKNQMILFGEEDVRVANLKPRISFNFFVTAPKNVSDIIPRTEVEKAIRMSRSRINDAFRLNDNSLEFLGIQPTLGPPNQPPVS
Sequence of ACE-2 (Rattus norvegicus, UniProt Q5EGZ1) (Q5EGZ1 18-805): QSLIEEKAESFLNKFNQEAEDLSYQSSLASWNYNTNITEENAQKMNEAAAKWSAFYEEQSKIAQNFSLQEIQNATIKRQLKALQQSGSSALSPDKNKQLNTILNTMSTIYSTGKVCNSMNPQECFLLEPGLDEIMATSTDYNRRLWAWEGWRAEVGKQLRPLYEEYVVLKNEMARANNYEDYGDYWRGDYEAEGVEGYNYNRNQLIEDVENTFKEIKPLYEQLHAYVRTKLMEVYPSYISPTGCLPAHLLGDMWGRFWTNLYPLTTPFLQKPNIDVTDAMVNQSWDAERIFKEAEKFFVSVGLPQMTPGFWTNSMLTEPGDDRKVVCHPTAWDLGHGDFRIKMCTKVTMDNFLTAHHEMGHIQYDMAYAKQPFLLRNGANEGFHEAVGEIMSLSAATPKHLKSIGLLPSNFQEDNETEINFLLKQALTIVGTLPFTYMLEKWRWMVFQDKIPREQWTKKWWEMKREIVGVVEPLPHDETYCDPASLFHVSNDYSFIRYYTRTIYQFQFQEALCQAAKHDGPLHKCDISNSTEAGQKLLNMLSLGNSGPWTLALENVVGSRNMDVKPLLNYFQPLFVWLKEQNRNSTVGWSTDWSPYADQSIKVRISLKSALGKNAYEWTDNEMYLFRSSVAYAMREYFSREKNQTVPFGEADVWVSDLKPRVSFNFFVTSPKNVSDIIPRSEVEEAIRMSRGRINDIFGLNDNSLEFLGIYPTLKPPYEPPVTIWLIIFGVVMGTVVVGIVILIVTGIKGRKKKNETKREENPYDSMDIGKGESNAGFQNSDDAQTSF

`CC(C)CC(N[C@H](Cc1c[nH]cn1)C(=O)O)C(=O)O` (single isomer, unassigned) [BI, 2-[1-Carboxy-2-(1H-imidazol-4-yl)-ethylamino]4-methyl-pentanoic acid]: the Ki at ACE-2 [1] (12 concentrations) was more than 0.5 µM; on ACE-2 [2] (12 concentrations), more than 0.5 µM; at Carboxypeptidase A, more than 50 µM; at ACE (Sigma, A2580), more than 50 µM.
For the compound `CC(C)CC(N[C@@H](Cc1c[nH]cn1)C(=O)O)C(=O)O` (single isomer, unassigned) [BK, 2-[1-Carboxy-2-(1H-imidazol-4-yl)-ethylamino]4-methyl-pentanoic acid], the Ki at ACE-2 [1] (12 concentrations) was 0.1 to 0.5 µM; at ACE-2 [2] (12 concentrations), more than 0.5 µM; on Carboxypeptidase A, more than 50 µM; at ACE (Sigma, A2580), more than 50 µM.
With `CC(C)CC(N[C@@H](Cc1c[nH]cn1)C(=O)O)C(=O)O` (single isomer, unassigned) [BL, 2-[1-Carboxy-2-(1H-imidazol-4-yl)-ethylamino]4-methyl-pentanoic acid], the Ki on ACE-2 [1] (12 concentrations) was more than 0.5 µM; at Carboxypeptidase A it was more than 50 µM; at ACE (Sigma, A2580), 10 to 50 µM.
On to `COC(=O)[C@H](Cc1c[nH]cn1)NC(CC(C)C)C(=O)O` (single isomer, unassigned) [CT, 2-[2-(1H-Imidazol-4-yl)-1-methoxycarbonyl-ethylamino]-4-methyl-pentanoic acid], for which the Ki at ACE-2 [1] (12 concentrations) was more than 0.5 µM; at ACE-2 [2] (12 concentrations) it was more than 0.5 µM; at Carboxypeptidase A, more than 50 µM; at ACE (Sigma, A2580) it was more than 50 µM.
With `COC(=O)[C@H](Cc1c[nH]cn1)NC(CC(C)C)C(=O)O` (single isomer, unassigned) [CU, 2-[2-(1H-Imidazol-4-yl)-1-methoxycarbonyl-ethylamino]-4-methyl-pentanoic acid], the Ki on ACE-2 [1] (12 concentrations) was 0.1 to 0.5 µM; at Carboxypeptidase A it was more than 50 µM; at ACE (Sigma, A2580), more than 50 µM.
Regarding `O=C(O)C(Cc1ccc(O)cc1)N[C@@H](Cc1c[nH]cn1)C(=O)O` (single isomer, unassigned) [DO, 2-[1-Carboxy-2-(4-hydroxy-phenyl)-ethylamino]-3-(1H-imidazol-4-yl)-propionicacid], the Ki on ACE-2 [1] (12 concentrations) was 0.1 to 0.5 µM; at Carboxypeptidase A, more than 50 µM; on ACE (Sigma, A2580), 10 to 50 µM.
The corresponding values for `CCCCC(N[C@@H](Cc1c[nH]cn1)C(=O)O)C(=O)O` (single isomer, unassigned) [EF, 2-[1-Carboxy-2-(1H-imidazol-4-yl)-ethylamino]hexanoic acid] are more than 0.5 µM, more than 50 µM and 10 to 50 µM.
The matching figures for `CC(C)CC(N[C@@H](Cc1cncn1COCc1ccccc1)C(N)=O)C(=O)O` (single isomer, unassigned) [FC, 2-[2-(3-Benzyloxymethyl-3H-imidazol-4-yl)-1-carbamoyl-ethylamino]-4-methyl-pentanoic acid]: more than 0.5 µM, more than 50 µM and more than 50 µM.
The matching figures for `CCCCC(N[C@@H](Cc1cncn1Cc1ccccc1)C(=O)O)C(=O)O` (single isomer, unassigned) [FZ, 2-[2-(3-Benzyl-3H-imidazol-4-yl)-1-carboxy-ethylamino]-hexanoicacid]: more than 0.5 µM, more than 50 µM and more than 50 µM.
With `CCC(C)C(NC(Cc1cncn1Cc1ccccc1)C(=O)O)C(=O)O` (single isomer, unassigned) [GD, 2-[2-(3-Benzyl-3H-imidazol-4-yl)-1-carboxy-ethylamino]-3-methyl-pentanoic acid], the Ki at ACE-2 [1] (12 concentrations) is more than 0.5 µM; at Carboxypeptidase A it was more than 50 µM; at ACE (Sigma, A2580) it was more than 50 µM.
With `O=C(O)C(Cc1ccccc1)N[C@@H](Cc1cnc[nH]1)C(=O)O` (some centres unmarked) [EQ, 2-(1-Carboxy-2-phenyl-ethylamino)-3-(1H-imidazol-4-yl)-propionicacid], the Ki at ACE-2 [1] (12 concentrations) was 0.1 to 0.5 µM; on Carboxypeptidase A, 10 to 50 µM; at ACE (Sigma, A2580) it was more than 50 µM.
As to `CC(C)C[C@H](N[C@@H](Cc1ccn(Cc2ccccc2)n1)C(=O)O)C(=O)O` [IN, (S,S)-2-[2-(1-benzyl-1H-pyrazol-3-yl)-1-carboxy-ethylamino]-4-methyl pentanoic acid], the Ki at ACE-2 [1] (12 compound concentrations) was less than 0.1 µM; at ACE-2 [2] (12 compound concentrations, Ki=Kiapp/(1+[S]/Km)) it was 0.1 to 0.5 µM.
